Records with an inconclusive call do not appear.
tested on: D54 LucT luciferase reporter counterscreen, luminescence, 24 h; experiment: luciferase activators in glycosylation-insensitive reporter cells, dose response, counter-screen for N-linked glycosylation inhibitor project, D54 LucT cells, luminescence, cherry pick (AID 624404)

Compound | AC35
Cn1c(=O)c2cc(NC(=O)CCc3ccccc3)ccc2n1-c1ccccc1F | 2980 nM
COc1ccccc1N1CCN(c2ccc3c(c2)S(=O)(=O)c2cccc(C(=O)NCC4CC4)c2C3=O)CC1 | 1190 nM
Cn1c(=O)cc2c3c(c(N4CCCCC4)ccc31)C(=O)c1ccccc1-2 | 1350 nM
C[C@@H](NC(=O)c1nc[nH]c1C(=O)N1CCN(c2ccccc2)CC1)c1ccccc1 | 1830 nM
CCN(c1ccccc1)S(=O)(=O)c1ccc(N)c(OC)c1 | 1820 nM
CCN1C(=O)c2cccc3c(S(=O)(=O)Nc4ccccc4OC)ccc1c23 | 896 nM
C[C@@]12C(=O)Nc3cc(Cl)ccc3C(=O)N1[C@H]1c3ccccc3OC[C@@H]1[C@@H]2c1ccccc1 | 282 nM
O=C(NO)c1ccc(OC(F)F)cc1 | 1520 nM
CC1(C(=O)NCc2ccccc2)Cc2c(-c3cccc(C(N)=O)c3)ccnc2O1 (stereo not drawn) | 651 nM
CC(=O)Nc1ccc(-c2ccnc3c2CC(C(=O)NCc2cccc(Cl)c2)O3)cc1 (stereo not drawn) | 57.6 nM
COc1ccc(/C=C/C(=O)c2ccc(Cl)s2)cc1O | 6020 nM
Cc1ccc2nc(/C(C#N)=C/c3cn[nH]c3-c3ccc(F)cc3)[nH]c2c1 | 2180 nM
Cc1ccc2c(c1)C(=O)N1[C@H]3c4cc(Cl)ccc4OC[C@@H]3[C@H](c3ccccc3)[C@]1(C)C(=O)N2 | 650 nM
COc1ccc(OC)c(Nc2ncnc3c2cnn3-c2cccc(C)c2)c1 | 4590 nM
COc1cc(F)ccc1-c1csc(C(NC(C)=O)c2cccc(F)c2)n1 (stereo not drawn) | 93.1 nM
CCc1ccc(OCC(=O)Nc2ccc(-c3cc4ccccc4oc3=O)c(OC)c2)cc1 | 734 nM
CC(C)c1c(C(=O)Nc2ccccc2)c(-c2ccccc2)c(-c2ccc(F)cc2)n1CC[C@@H](O)C[C@@H](O)CC(=O)O | 1260 nM
CC(=O)c1ccc(N2CCN(C(=O)c3cccc(Oc4ccccc4)c3)CC2)cc1 | 1270 nM
COc1cccc(N2CCN(C(=O)c3[nH]c(C)c(C(C)=O)c3C)CC2)c1 | 4890 nM
CCN(CC)c1ccc(/C=N/NC(=O)c2cnccn2)cc1 | 53.7 nM
Cc1[nH]c2ccccc2c1/C=N/NC(=O)c1cc(-c2ccncc2)nc2ccccc12 | 2060 nM
CC(C)Sc1ccccc1C(=O)Nc1ccc2c(c1)n(C)c(=O)n2C | 1820 nM
Cc1cnc2cc(Cl)c(Cl)cc2n1 | 5410 nM
Cn1c(=O)n(C)c2cc(NS(=O)(=O)c3ccc4c(c3)CCCC4)ccc21 | 416 nM
O=C(NC1CCCCC1)c1cccc2c1C(=O)c1ccc(-c3ccc(OC(F)(F)F)cc3)cc1S2(=O)=O | 31.2 nM
CCC(c1nc2ccccc2c(=O)n1-c1nc2ccccc2s1)N1C(=O)c2ccccc2C1=O (stereo not drawn) | 740 nM
COc1ccc2c(c1)[C@H]1[C@H](CO2)[C@H](c2ccccc2)[C@]2(C)C(=O)Nc3cc(OC)c(OC)cc3C(=O)N12 | 20.2 nM

Compound | AC35
COc1cccc(Sc2ccccc2/C=N/NC(N)=O)c1 | 3390 nM
O=C(NC1CCCCC1)c1ccc([N+](=O)[O-])o1 | 1370 nM
COc1cc(/C=C2\SC(=S)N(CCC(=O)N3CCCCC3)C2=O)cc(OC)c1OC | 3440 nM
O=C(c1ccc(Cl)c(S(=O)(=O)N2CCCCC2)c1)N1CCN(Cc2ccccc2)CC1 | 1920 nM
COc1cc2c(cc1OC)CN(c1ccc(-c3ccccc3OC)nn1)CC2 | 7870 nM
Cc1cc(C)nc(/N=C(\N)Nc2ccc(CC(=O)OC(C)C)cc2)n1 | 1680 nM
CCN1C(=O)CCN(C2CCCC2)c2nc(Nc3ccc(C(=O)NC4CCN(C)CC4)cc3OC)ncc21 | 226 nM
Cc1ccc2nc(SCC(=O)Nc3ccc4sc(C)nc4c3)c(C#N)cc2c1 | 4.83 nM
OCCCCCN=c1cc(-c2ccccc2)oc2ccc(Cl)cc12 | 2190 nM
CC(C)(C)S(=O)(=O)N1C[C@@H]2CC/C=C\C/C(c3ccccc3)=C\2[C@H]1CCO | 645 nM
O=C(/C(=C\c1ccccc1)c1nc2ccccc2[nH]1)c1ccc(Cl)cc1 | 306 nM
Cc1ccc2c(c1)C(=O)N1[C@H]3c4cc(Br)ccc4OC[C@@H]3[C@H](c3ccccc3)[C@]1(C)C(=O)N2 | 241 nM
C=CCn1c(SCc2c(C)noc2C)nc2sc(C)c(C)c2c1=O | 2020 nM
Cc1ccc2nc(-c3ccccc3)cc(C(=O)N3CC(C)OC(C)C3)c2c1 (stereo not drawn) | 1920 nM
O=C(/C=C/c1cccc(Br)c1)c1ccc2c(c1)OCO2 | 951 nM
CCOC(=O)N1CCN(C(=O)c2cc(-c3ccncc3)nc3ccccc23)CC1 | 5630 nM
CCn1ncc(C2=NOC(C(=O)NCc3ccccc3)C2)c1C (stereo not drawn) | 9540 nM
Nc1c2ccccc2nc2ccccc12 | 4900 nM
CC(=O)Nc1cccc(-c2ccnc3c2CC(C)(C(=O)NCC2CC2)O3)c1 (stereo not drawn) | 11500 nM
Cc1cc(NCCCn2ccnc2)n2nc(C)c(-c3ccccc3)c2n1 | 2290 nM
Cc1ccc(C)c(NC(=S)NC(NC(=O)Cc2cccc3ccccc23)C(Cl)(Cl)Cl)c1 (stereo not drawn) | 3550 nM
NS(=O)(=O)c1ccc(NC(=O)c2cccc3cc4ccccc4nc23)cc1 | 6580 nM
CCOc1ccc(N2CCc3c(C)nc(SC)nc32)cc1 | 3060 nM
CCOC(=O)c1c(C)c(C(=O)Nc2cc(F)ccc2F)c(C)n1C | 3020 nM
CN(Cc1ccccc1)c1nc2c(c(=O)[nH]c(=O)n2C)n1CCCc1ccccc1 | 909 nM
CCNC(=O)COc1ccc(/C=C2\COc3ccccc3C2=O)cc1OC | 4800 nM
